Reference: US6596700B2, “Methods of treating hepatitis delta virus infection with β-L-2'-deoxy-nucleosides” (priority 2000, dated 2003)
Where two headings read alike, the source gives them in different places.

What was measured:
HDV [1] = conditions: cited from earlier work
HDV [2] = conditions: chronically infected animals; cited from earlier work
[3] = tested on: hepatitis B surface antigen; conditions: in vivo; cited from earlier work
HDV [4] = conditions: patients with chronic delta hepatitis; cited from earlier work
HDV [5] = conditions: in vivo, cited from earlier work
hepatitis B = conditions: for IC50: single agent, hepatitis B replication in 2.2.15 cells
Hep G-2 (2.2.15) cells = assay: cytotoxicity in Hep G-2 (2.2.15) cells; conditions: read-out: Cytotoxicity IC50
hepatitis B virus = assay: anti-hepatitis B virus activity in transfected Hep G-2 (2.2.15) cells; type: cell-based
CFU-GM [6] = assay: human bone marrow clonogenic assay, CFU-GM; conditions: effect on cell growth
[7] = tested on: woodchuck hepatitis virus (WHV); assay: woodchuck chronic hepatitis model, WHV DNA in serum; type: in vivo, woodchucks (Marmota monax); conditions: for activity compared with 3TC (lamivudine): 3TC 10 mg/kg/day; for ng WHV-DNA per ml serum: orally once a day at 10 mg/kg; for activity in the in vivo model / level to which viral load is reduced: woodchucks chronically infected with WHV
Protocol: The efficacy of L-dA, L-dT and L-dC against hepadnavirus infection in woodchucks (Marmota monax) chronically infected with woodchuck hepatitis virus (WHV) was determined. This animal model of HBV infection is widely accepted and has proven to be useful for the evaluation of antiviral agents directed against HBV. There were 3 animals per drug group, and 4 animals per control. In group 1, the animals received a vehicle control; group 2 received lamivudine (3TC) (10 mg/kg/day); groups 3-6 received L-dA (0.01, 0.1, 1.0, 10 mg/kg/day, respectively); groups 7-10 received L-dT (0.01, 0.1, 1.0, 10 mg/kg/day, respectively); and groups 11-14 received L-dC (0.01, 0.1, 1.0, 10 mg/kg/day). […] Assessment of the activity and toxicity was based on the reduction of WHV DNA in serum: dot-blot, quantative PCR.

BFU-E = assay: human bone marrow clonogenic assay, BFU-E; type: cell-based
CFU-GM [8] = tested on: CFU-GM
[9] = extracellular DNA, read-out: HBV virions EC50
[10] = replicative intermediates (intracellular DNA), read-out: HBV Ri EC50
[11] = day 0, limit of detection 1 ng/ml

SMILES	IC50 (Hep G-2 (2.2.15) cells)	EC50 (hepatitis B virus; [9])	EC50 (hepatitis B virus; [10])	activity compared with 3TC (lamivudine) [7]	ng WHV-DNA per ml serum [7, 11]	ng WHV-DNA per ml serum ([7]; day 1)	ng WHV-DNA per ml serum ([7]; day 3)	ng WHV-DNA per ml serum ([7]; day 7)	ng WHV-DNA per ml serum ([7]; day 14)	activity in the in vivo model [7]	level to which viral load is reduced [7]	BFU-E (BFU-E)	further results
Nc1nc2c(ncn2COCCO)c(=O)[nH]1 [Acyclovir]	–	–	–	–	–	–	–	–	–	–	–	–	HDV replication (HDV [1]; in vitro): enhances HDV replication in vitro
Cc1cn([C@H]2O[C@@H](CO)[C@H](O)[C@H]2F)c(=O)[nH]c1=O [L-FMAU, 2′-fluoro-5-methyl-beta-L-arabinofuranosyluridine]	–	–	–	–	–	–	–	–	–	–	–	–	inhibition of HDV (HDV [2]): potent inhibitor of HDV; level of hepatitis B surface antigen [3]: significantly reduces the level of hepatitis B surface antigen
Nc1ccn([C@@H]2CS[C@H](CO)O2)c(=O)n1 [Lamuvidine, β-L-2′,3′-dideoxy-3′-thiacytidine]	–	–	–	–	–	–	–	–	–	–	–	–	disease activity and HDV-RNA levels (HDV [4]): does not improve disease activity or lower HDV-RNA levels
NC(=O)c1ncn([C@@H]2O[C@H](CO)[C@@H](O)[C@H]2O)n1 [Ribavirin]	–	–	–	–	–	–	–	–	–	–	–	–	side-effects (HDV [5]): severe side-effects; virological or biochemical parameters (HDV [5]): did not significantly affect virological or biochemical parameters
Cc1ccc(C(=O)Nc2ccc(S(=O)(=O)O)c3cc(S(=O)(=O)O)cc(S(=O)(=O)O)c23)cc1NC(=O)c1cccc(NC(=O)Nc2cccc(C(=O)Nc3cc(C(=O)Nc4ccc(S(=O)(=O)O)c5cc(S(=O)(=O)O)cc(S(=O)(=O)O)c45)ccc3C)c2)c1 [suramin]	–	–	–	–	–	–	–	–	–	–	–	–	toxicity (HDV [5]; human): too toxic to be acceptable for long term use in humans; entry of the virion into hepatocytes (HDV [1]): blocks the entry of the virion into hepatocytes
Nc1ncnc2c1ncn2[C@@H]1C[C@@H](O)[C@H](CO)O1 [β-L-dA, 2′-Deoxy-β-L-adenosine]	> 200000 nM	100 nM	100 nM	more active than 3TC	436 ng/mL	369 ng/mL	140 ng/mL	102 ng/mL	74 ng/mL	highly active	nearly undetectable	–	% Inhibition (hepatitis B; single agent 0.005 μM): 1%; % Inhibition (hepatitis B; single agent 0.05 μM): 24%; % Inhibition (hepatitis B; single agent 0.5 μM): 90%; IC50 (hepatitis B): 90 nM; CFU-GM (CFU-GM [6]): >10 µM; BFU-E (BFU-E; effect on cell growth, human bone marrow clonogenic assay): >10 µM
Nc1ccn([C@@H]2C[C@@H](O)[C@H](CO)O2)c(=O)n1 [β-L-dC, 2′-Deoxy-β-L-cytidine]	> 200000 nM	50 nM	50 nM	more active than 3TC	426 ng/mL	123 ng/mL	62 ng/mL	46 ng/mL	20 ng/mL	highly active	nearly undetectable	>10 µM	% Inhibition (hepatitis B; single agent 0.005 μM): 10%; % Inhibition (hepatitis B; single agent 0.05 μM): 40%; % Inhibition (hepatitis B; single agent 0.5 μM): 95%; IC50 (hepatitis B): 60 nM; CFU-GM (CFU-GM [6]): >10 µM
O=c1[nH]cnc2c1ncn2[C@@H]1C[C@@H](O)[C@H](CO)O1 [β-L-dI, 2′-deoxy-β-L-inosine]	> 200000 nM	1000 nM	1000 nM	–	–	–	–	–	–	–	–	–	–
Cc1cn([C@@H]2C[C@@H](O)[C@H](CO)O2)c(=O)[nH]c1=O [β-L-dT, 2′-Deoxy-β-L-thymidine]	> 200000 nM	50 nM	50 nM	more active than 3TC	423 ng/mL	45 ng/mL	14 ng/mL	6 ng/mL	1 ng/mL	highly active	undetectable	>10 µM	CFU-GM (CFU-GM [8]): >10 µM; viral rebound after withdrawal ([7]; post-treatment): viral rebound is not detected for at least two weeks
O=c1ccn([C@@H]2C[C@@H](O)[C@H](CO)O2)c(=O)[nH]1 [β-L-dU, β-L-2′-deoxyuridine]	> 200000 nM	5000 nM	5000 nM	–	–	–	–	–	–	–	–	>10 µM	CFU-GM (CFU-GM [8]): >10 µM
